In US4173702A, “7-(5-Amino-5-carboxyvaler-amido)-3-(carbamoyloxymethyl)-7-methoxy-3-cep hem-4-carboxylic acid” (Eli Lilly and Company, priority 1970, dated 1979):
Like-named read-outs stand apart in the source and are kept apart here.

Experiments:
solubility = format: physicochemical
Pseudomonas solanacearum = format: in vivo; conditions: 0 no control, 4 complete control
[1] = tested on: Ascaris lumbricoides var. suum; test: medicated feed, mice infected with Ascaris ova, lung lesions; format: in vivo; conditions: Example 13, mice, 0.05 percent in diet; control 2.66
Text: The feeds were utilized as diets for separate groups of mice, five mice per group. Above twelve hours after initiation of the feeding, the mice were infected with Ascaris lumbricoides var. suum ova. Another group of five mice were fed the non-medicated feed to serve as a control but was similarly infected at the same time with Ascaris lumbricoides var. suum. All groups were fed their respective feed and maintained under normal laboratory conditions for a period of eight days, at which time all mice were taken off feed. On the ninth day, all mice were sacrificed and the lungs examined to determine the presence, and if present, numbers, of lesions of Ascaris lumbricoides var. suum.
Another evaluation was conducted under the procedures reported in Example 11, except that the rates were varied. The results were as follows:
In a further evaluation, the monoammonium salts of A16886I and A16886II were separately evaluated for the control of Ascaris lumbricoides var. suum. The evaluations were conducted in accordance with the procedure reported in Example 11 at a concentration in the diet of 0.05 percent.

tomato plants = test: field trial, crop injury; format: in vivo; conditions: 0=no injury, 10=dead plants
Experimental: (§1) A mixture of the monoammonium salt of A16886I and the monoammonium salt of A16886II was tested under field conditions for the control of Xanthomonas vesicatoria (bacterial spot) on mature bearing tomato plants. The mixture of the two salts was dispersed in water at a concentration of 100, 200, or 400 parts per million and applied to the plants at the rate of 75 gallons per acre. Application was made with a CO2 sprayer at 50 psi. Plants were sprayed twice, on successive days; after the second spray had dried, all plants were wounded by sand blasting and then within one minute the plants were inoculated with a bacterial inoculum of Xanthomonas vesicatoria. Three days later, a third spray application of the aqueous formulation of A16886 was made. Readings were made one week and two weeks after the last spray treatment. Controls consisted of groups of plants (1) sand blasted and inoculated; (2) sand blasted only; (3) untreated; and (4) treated with streptomycin (on the same three-day spraying schedule, at a concentration of 100, 200, or 400 parts per million of aqueous solution, using a rate of 75 gallons per acre), sand blasted, and inoculated. The results were as set forth in the following table, in which crop injury is reported on a scale of 0-10, with 0=no injury and 10=dead plants; and control of bacterial spot is reported on a percentage basis.

Xanthomonas vesicatoria = test: field trial, bacterial spot control on tomato plants; format: in vivo
Experimental: as §1

[2] = in acetonitrile and other organic solvents

## COC1(NC(=O)CCCC(N)C(=O)O)C(=O)N2C(C(=O)O)=C(COC(N)=O)CS[C@@H]21 (stereo partly drawn) [A16886I, 7-(5-amino-5-carboxyvaleramido)-3-(carbamoyloxymethyl)-7-methoxy-3-cephem-4-carboxylic acid]
solubility; [2]
  solubility: essentially insoluble
solubility; in lower alkanols
  solubility: slightly soluble
solubility; in water
  solubility: very soluble
Pseudomonas solanacearum; Example 7, 10 ppm.
  Disease Rating: 2
Pseudomonas solanacearum; Example 7, 100 ppm.
  Disease Rating: 4
Pseudomonas solanacearum; Example 8, 100 ppm.
  rating: 4
Pseudomonas solanacearum; Example 8, 200 ppm.
  rating: 4
Pseudomonas solanacearum; Example 8, 400 ppm.
  rating: 4
[1]
  Average Number of Lung Lesions Per Group: 0.46

## NC(=O)OCC1=C(C(=O)O)N2C(=O)C(NC(=O)CCCC(N)C(=O)O)[C@H]2SC1 (stereo partly drawn) [A16886II, 7-(5-amino-5-carboxyvaleramido)-3-(carbamoyloxymethyl)-3-cephem-4-carboxylic acid]
solubility; [2]
  solubility: essentially insoluble
solubility; in lower alkanols
  solubility: slightly soluble
solubility; in water
  solubility: very soluble
Pseudomonas solanacearum; Example 7, 10 ppm.
  Disease Rating: 1
Pseudomonas solanacearum; Example 7, 100 ppm.
  Disease Rating: 4
[1]
  Average Number of Lung Lesions Per Group: 0.20

## [H]/N=C(/N)N[C@H]1[C@H](O)[C@@H](O)[C@H](O[C@@H]2O[C@@H](C)[C@](O)(C=O)[C@H]2O[C@@H]2O[C@@H](CO)[C@H](O)[C@@H](O)[C@@H]2NC)[C@@H](N/C(N)=N\[H])[C@@H]1O [Streptomycin]
Tomato plants; 100 ppm, First Reading
  Crop Injury Ratings: 0
Tomato plants; 100 ppm, Second Reading
  Crop Injury Ratings: 0
Tomato plants; 200 ppm, First Reading
  Crop Injury Ratings: 0
Tomato plants; 200 ppm, Second Reading
  Crop Injury Ratings: 0
Tomato plants; 400 ppm, First Reading
  Crop Injury Ratings: 0
Tomato plants; 400 ppm, Second Reading
  Crop Injury Ratings: 0
Xanthomonas vesicatoria; 100 ppm, First Reading
  Percent Bacterial Spot Control: 83%
Xanthomonas vesicatoria; 100 ppm, Second Reading
  Percent Bacterial Spot Control: 57%
Xanthomonas vesicatoria; 200 ppm, First Reading
  Percent Bacterial Spot Control: 81%
Xanthomonas vesicatoria; 200 ppm, Second Reading
  Percent Bacterial Spot Control: 37%
Xanthomonas vesicatoria; 400 ppm, First Reading
  Percent Bacterial Spot Control: 83%
Xanthomonas vesicatoria; 400 ppm, Second Reading
  Percent Bacterial Spot Control: 59%
